This is an account of results in patent US20100119599A1 (ARCHER PHARMACEUTICALS, INC., priority 2006, published 2010).

Assay [1] deals with Aβ1-40. As to the kind of experiment: Measurement of Aβ1-40 in culture medium of 7W WT APP751 CHO cells by ELISA. Type of assay: cell-based, Chinese hamster. The note with it: CHO cells that overexpress APP751; zero = below the detection limit of the assay. How it is done: (§1) Chinese hamster ovary (CHO) cells, stably transfected with human APP751 (7W WT APP751 CHO cells) were used. See, e.g., Koo and Squazzo, J. Biol. Chem., 269(26): 17386-17389, 1994. The cells were maintained in DMEM medium supplemented with 10% fetal bovine serum and 1× mixture of penicillin/streptomycin/fungizone/glutamine mixture (Cambrex, Md.) geneticin as selecting agent in 75 cm^2 cell culture flasks. The 7W WT APP751 CHO cells were plated in 96-well cell culture plates in quadruplicate, containing 200 microliters of culture medium, for 18 hours at 37° C. and 5% CO2. All test compounds were placed in dimethyl sulfoxide (DMSO) before being added to the cultured confluent 7W WT APP751 CHO cells to a concentration of the test compound of 5 μM. The culture medium was collected and diluted before being assayed by ELISAs for Aβ1-40 at 10-fold dilution and Aβ1-42 at 2-fold dilution, respectively. Concentrations of Aβ1-40 and Aβ1-42, expressed in pg/ml, were determined using commercially available ELISAs (Biosource, Calif.) in a colorimetric assay using labeled antibodies detected spectrophotometrically. For compounds with an identification beginning “RI”, the compounds were tested at a concentration of 10 μM for 24 hours. Control cells were treated with DMSO containing no compound. The percentage reduction in levels of Aβ1-40 and Aβ1-42 as compared to control cells not exposed to the test compounds are reported for the compounds in Tables 1, 2, and 3, supra. An entry of “0” indicates no detectable amount of Aβ1-40 or Aβ1-42 according to the assay conditions. The data in Tables 1, 2, and 3 may be rounded to the nearest 0.1%.
In general terms: An ELISA detects its analyte on a solid surface through an enzyme-linked reagent.

In assay [2] the test system is Aβ1-42. As to the kind of experiment: Measurement of Aβ1-42 in culture medium of 7W WT APP751 CHO cells by ELISA. Type of assay: cell-based, Chinese hamster. Conditions: CHO cells that overexpress APP751; zero = below the detection limit of the assay. How it is done:
as §1
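Note: 5 µM test compound but RI-coded compounds at 10 µM for 24 hours.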

Regarding `CC1=C(C(=O)Nc2ccc(Cl)cc2)C(c2ccccc2)c2c(sc(C(=O)Nc3cccc(C)c3)c2N)N1` (stereo not drawn) [RI_43], the “Aβ1-40 (% of control)” value in assay [1] is listed as 61.2 % of control. The “Aβ1-42 (% of control)” value in assay [2] is given as 75.1 % of control.
On to `CCc1cccc(NC(=O)CSC2=C(C#N)C(c3ccsc3)C(C(=O)Nc3ccccc3)=C(C)N2)c1` (stereo not drawn) [RI_44], for which the “Aβ1-40 (% of control)” value in assay [1] is recorded as 93.1 % of control. Further, the “Aβ1-42 (% of control)” value in assay [2] was 60.1 % of control.
As to `CCc1cccc(NC(=O)CSC2=C(C#N)C(c3cccs3)C(C(=O)Nc3ccccc3)=C(C)N2)c1` (stereo not drawn) [RI_45], in assay [1], the “Aβ1-40 (% of control)” value is on record as 82.7 % of control. For the same compound, the “Aβ1-42 (% of control)” value in assay [2] is given as 61.3 % of control.
The matching figures for `CC1=C(C(=O)Nc2ccccc2)C(c2ccsc2)C(C#N)=C(SCC(=O)Nc2ccc(C(C)C)cc2)N1` (stereo not drawn) [RI_46]: 74.4 % of control and 70.2 % of control.
Consider `CC1=C(C(=O)Nc2ccccc2)C(c2cccs2)C(C#N)=C(SCC(=O)Nc2ccc(C(C)C)cc2)N1` (stereo not drawn) [RI_47], for which the “Aβ1-40 (% of control)” value in assay [1] is on record as 30.5 % of control. In addition, the “Aβ1-42 (% of control)” value in assay [2] was 28.1 % of control.
The like results for `CC1=C(C(=O)Nc2ccccc2)C(c2ccsc2)C(C#N)=C(SCC(=O)Nc2ccccc2C)N1` (stereo not drawn) [RI_48] were, in that order, 86.5 % of control and 100 % of control.
The matching figures for `CC1=C(C(=O)Nc2ccccc2)C(c2ccsc2)C(C#N)=C(SCC(=O)Nc2ccc(C)cc2)N1` (stereo not drawn) [RI_49]: 40.9 % of control and 37.7 % of control.
Consider `CC1=C(C(=O)Nc2ccccc2)C(c2cccs2)C(C#N)=C(SCC(=O)Nc2ccc(C)cc2)N1` (stereo not drawn) [RI_50], for which, in assay [1], the “Aβ1-40 (% of control)” value is 55.2 % of control. Moreover, the “Aβ1-42 (% of control)” value in assay [2] is 38.2 % of control.
The like results for `COc1cccc(NC(=O)CSC2=C(C#N)C(c3ccsc3)C(C(=O)Nc3ccccc3)=C(C)N2)c1` (stereo not drawn) [RI_51] were, in that order, 53.5 % of control and 58 % of control.
The matching figures for `CCCc1ccc(NC(=O)CSC2=C(C#N)C(c3ccsc3)C(C(=O)Nc3ccccc3)=C(C)N2)cc1` (stereo not drawn) [RI_52]: 50.3 % of control and 61.6 % of control.
With `CC1=C(C(=O)Nc2ccc(Cl)cc2)C(c2ccsc2)C(C#N)=C(SCC(=O)Nc2cccc(Cl)c2C)N1` (stereo not drawn) [RI_53], in assay [1], the “Aβ1-40 (% of control)” value is on record as 56 % of control. In assay [2], the “Aβ1-42 (% of control)” value is reported as 99.2 % of control.
The like results for `CC1=C(C(=O)Nc2ccc(Cl)cc2)C(c2ccccc2)C(C#N)=C(SCC(=O)Nc2ccc(C(C)C)cc2)N1` (stereo not drawn) [RI_54] were, in that order, 45.89 % of control and 52.6 % of control.
For the compound `COc1cccc(NC(=O)CSC2=C(C#N)C(c3ccccc3)C(C(=O)Nc3ccc(Cl)cc3)=C(C)N2)c1` (stereo not drawn) [RI_55], the “Aβ1-40 (% of control)” value in assay [1] is listed as 48.1 % of control. Further, the “Aβ1-42 (% of control)” value in assay [2] is recorded as 40.3 % of control.
For `CC1=C(C(=O)Nc2ccccc2)C(c2cccs2)C(C#N)=C(SCC(=O)Nc2ccccc2C(C)C)N1` (stereo not drawn) [RI_56], the “Aβ1-40 (% of control)” value in assay [1] is reported as 54.5 % of control. Also, in assay [2], the “Aβ1-42 (% of control)” value is listed as 100 % of control.
The like results for `COc1ccccc1NC(=O)CSC1=C(C#N)C(c2ccsc2)C(C(=O)Nc2ccccc2)=C(C)N1` (stereo not drawn) [RI_57] were, in that order, 49.1 % of control and 37.3 % of control.
The matching figures for `COc1ccc(NC(=O)CSC2=C(C#N)C(c3cccs3)C(C(=O)Nc3ccccc3)=C(C)N2)cc1` (stereo not drawn) [RI_58]: 23.1 % of control and 25.6 % of control.
Turning to `COc1ccc(NC(=O)CSC2=C(C#N)C(c3ccsc3)C(C(=O)Nc3ccccc3)=C(C)N2)cc1` (stereo not drawn) [RI_59], the “Aβ1-40 (% of control)” value in assay [1] was 27.7 % of control. The “Aβ1-42 (% of control)” value in assay [2] is 30.6 % of control.
Consider `CC1=C(C(=O)Nc2ccc(Cl)cc2)C(c2cccs2)C(C#N)=C(SCC(=O)Nc2ccc(C)c(Cl)c2)N1` (stereo not drawn) [RI_60], for which the “Aβ1-40 (% of control)” value in assay [1] is given as 59.4 % of control. Besides, the “Aβ1-42 (% of control)” value in assay [2] is on record as 71.1 % of control.
The like results for `CCc1ccc(NC(=O)CSC2=C(C#N)C(c3cccs3)C(C(=O)Nc3ccccc3)=C(C)N2)cc1` (stereo not drawn) [RI_61] were, in that order, 68.5 % of control and 51.4 % of control.
The like results for `CCc1ccc(NC(=O)CSC2=C(C#N)C(c3ccsc3)C(C(=O)Nc3ccccc3)=C(C)N2)cc1` (stereo not drawn) [RI_62] were, in that order, 91.6 % of control and 62.4 % of control.
The matching figures for `CC1=C(C(=O)Nc2ccccc2)C(c2cccs2)C(C#N)=C(SCC(=O)Nc2ccc(C(C)(C)C)cc2)N1` (stereo not drawn) [RI_63]: 38.2 % of control and 38.8 % of control.
On to `CC1=C(C(=O)Nc2ccccc2)C(c2ccsc2)C(C#N)=C(SCC(=O)Nc2ccc(C(C)(C)C)cc2)N1` (stereo not drawn) [RI_64], for which the “Aβ1-40 (% of control)” value in assay [1] was 34.1 % of control. Moreover, the “Aβ1-42 (% of control)” value in assay [2] is listed as 41.3 % of control.
The like results for `CCCCc1ccc(NC(=O)CSC2=C(C#N)C(c3ccsc3)C(C(=O)Nc3ccccc3)=C(C)N2)cc1` (stereo not drawn) [RI_65] were, in that order, 51.7 % of control and 38.1 % of control.
The matching figures for `CC1=C(C(=O)Nc2ccccc2)C(c2cccs2)C(C#N)=C(SCC(=O)Nc2ccccc2)N1` (stereo not drawn) [RI_66]: 20.6 % of control and 23.6 % of control.
The like results for `CC1=C(C(=O)Nc2ccccc2)C(c2ccsc2)C(C#N)=C(SCC(=O)Nc2ccc(C)c(Cl)c2)N1` (stereo not drawn) [RI_67] were, in that order, 42.6 % of control and 51.8 % of control.
On to `CCC(C)c1ccccc1NC(=O)CSC1=C(C#N)C(c2ccsc2)C(C(=O)Nc2ccccc2)=C(C)N1` (stereo not drawn) [RI_68], for which the “Aβ1-40 (% of control)” value in assay [1] was 74.6 % of control. Further, in assay [2], the “Aβ1-42 (% of control)” value is 100 % of control.
The like results for `CC1=C(C(=O)Nc2ccccc2)C(c2cccs2)C(C#N)=C(SCC(=O)Nc2cccc(Cl)c2)N1` (stereo not drawn) [RI_69] were, in that order, 89.1 % of control and 69.8 % of control.
The matching figures for `CC1=C(C(=O)Nc2ccccc2)C(c2ccsc2)C(C#N)=C(SCC(=O)Nc2cccc(Cl)c2)N1` (stereo not drawn) [RI_70]: 74.1 % of control and 58.2 % of control.
Regarding `CC1=C(C(=O)Nc2ccccc2)C(c2cccs2)C(C#N)=C(SCC(=O)Nc2ccc(Br)cc2)N1` (stereo not drawn) [RI_71], the “Aβ1-40 (% of control)” value in assay [1] was 34.5 % of control. In addition, in assay [2], the “Aβ1-42 (% of control)” value is 25.1 % of control.
The matching figures for `CC1=C(C(=O)Nc2ccccc2)C(c2cccs2)C(C#N)=C(SCC(=O)Nc2ccc(Cl)c(C)c2)N1` (stereo not drawn) [RI_72]: 40.2 % of control and 50.9 % of control.
The matching figures for `CC1=C(C(=O)Nc2ccccc2)C(c2ccsc2)C(C#N)=C(SCC(=O)Nc2ccc(Br)cc2)N1` (stereo not drawn) [RI_73]: 24.3 % of control and 34.9 % of control.
As to `CC1=C(C(=O)Nc2ccccc2)C(c2cccs2)C(C#N)=C(SCC(=O)Nc2ccc(Cl)cc2)N1` (stereo not drawn) [RI_74], in assay [1], the “Aβ1-40 (% of control)” value is recorded as 31.4 % of control. Also, the “Aβ1-42 (% of control)” value in assay [2] is reported as 41.6 % of control.
As for `CC1=C(C(=O)Nc2ccccc2)C(c2ccsc2)C(C#N)=C(SCC(=O)Nc2ccc(Cl)cc2)N1` (stereo not drawn) [RI_75], the “Aβ1-40 (% of control)” value in assay [1] was 27.3 % of control. The “Aβ1-42 (% of control)” value in assay [2] is recorded as 38.6 % of control.
With `CC1=C(C(=O)Nc2ccccc2)C(c2cccs2)C(C#N)=C(SCC(=O)Nc2ccc(F)cc2)N1` (stereo not drawn) [RI_76], in assay [1], the “Aβ1-40 (% of control)” value is 46.2 % of control. For the same compound, in assay [2], the “Aβ1-42 (% of control)” value is listed as 54.6 % of control.
As for `CC1=C(C(=O)Nc2ccccc2)C(c2ccsc2)C(C#N)=C(SCC(=O)Nc2ccc(F)cc2)N1` (stereo not drawn) [RI_77], the “Aβ1-40 (% of control)” value in assay [1] was 16.9 % of control. In assay [2], the “Aβ1-42 (% of control)” value is reported as 25.4 % of control.
The like results for `CCc1cccc(NC(=O)CSC2=C(C#N)C(c3ccc(C)s3)C(C(=O)Nc3ccccc3)=C(C)N2)c1` (stereo not drawn) [RI_78] were, in that order, 77.32 % of control and 88.1 % of control.
The matching figures for `CCc1cccc(NC(=O)CSC2=C(C#N)C(c3sccc3C)C(C(=O)Nc3ccccc3)=C(C)N2)c1` (stereo not drawn) [RI_79]: 55.46 % of control and 51.6 % of control.
The like results for `CCc1cccc(NC(=O)CSC2=C(C#N)C(c3cc(Br)cs3)C(C(=O)Nc3ccccc3)=C(C)N2)c1` (stereo not drawn) [RI_80] were, in that order, 64.37 % of control and 54.3 % of control.
Regarding `CCc1cccc(NC(=O)CSC2=C(C#N)C(c3sccc3Oc3ccccc3)C(C(=O)Nc3ccccc3)=C(C)N2)c1` (stereo not drawn) [RI_81], the “Aβ1-40 (% of control)” value in assay [1] is reported as 73.6 % of control. In addition, in assay [2], the “Aβ1-42 (% of control)” value is reported as 100 % of control.
